Tests used:
[1] = test system: human lens cortical proteins; assay: Identification of AcK sites in proteins of Aggrelyte-2-treated lens (AcK peptide enrichment, LC-MS/MS); design: key to Fold Change (Aggrelyte-2 vs Control) [Total Sum]: *: were not detected in the control lens but were prominent in the Aggrelyte-2-treated lens
Protocol: (§1) The AcK modification sites and relative levels at those sites in the Aggrelyte-2-treated and untreated (control) human lens cortical proteins were evaluated in the lens (from a donor) that had the largest overall AcK differential measured by Western blot analysis (blot not shown; densitometric summary in FIG. 14B) and LC-MS/MS (FIG. 15B). Each sample (315 μg) was spiked with 200 ng of acetylated bovine serum albumin (AcBSA) protein standard, reduced, alkylated, and digested with trypsin using a urea-based method and then desalted using a C18 resin before being lyophilized. The samples were then immunoprecipitated according to the manufacturer's protocol for the PTMScan Acetyl-Lysine Motif Kit No. 13416 (Cell Signaling Technology). Peptides were purified with a Pierce C18 spin column (Thermo Fisher Scientific) and dried in a Speed Vac concentrator at 45° C. The peptides were resuspended in 3% acetonitrile in 0.1% formic acid for MS analysis.
(§2) The enriched AcK-bearing peptides were loaded onto a 2 cm PepMap 100 nanoviper trapping column and chromatographically resolved with a 0.075×250 mm, […] Acclaim PepMap RSLC reversed-phase nanocolumn (Thermo Scientific) using a 1290 Infinity II LC system equipped with a nanoadapter (Agilent). The mobile phase consisted of water+0.1% formic acid (A) and 90% aqueous acetonitrile+0.1% formic acid (B). Samples were loaded onto the trapping column at 3.0 μL/min for 3.5 min under initial conditions before being chromatographically separated at an effective flow rate of 330 nL/min using a gradient of 3-8% B over 3 min, 8-30% B over 33 min, and 30-40% B over 4 min at 40° C. The gradient was followed by a column wash at 75% B for 5 min. Data were collected using a 6550 Q-TOF equipped with a nanosource (Agilent Technologies) operated using intensity-dependent CID MS/MS to generate peptide identifications. MS/MS data were collected in positive ion polarity over a mass range of 290-1700 m/z at a scan rate of 8 spectra/second for MS scans and a mass range of 50-1700 m/z at a scan rate of 3 spectra/second for MS/MS scans. All charge states, except singly charged species, were allowed during MS/MS acquisition.
(§3) Tandem mass spectra were extracted, searched, and summarized using PEAKS X+ Studio 10.5 software (Bioinformatics Solutions Inc., Waterloo, Ontario). The spectra were searched against the UniProtKB SwissProt [2022_02] Homo sapiens database, allowing for up to three missed semitryptic cleavages with fixed carbamidomethylation of cysteine and a maximum of four variable modifications of deamidation of asparagine and glutamine, oxidation of methionine and/or acetylation of lysine per peptide. The allowed monoisotopic peptide mass tolerance was ±15.0 ppm, and the MS/MS tolerance was ±0.05 da. A false discovery rate (FDR) filter of 0.5% was used corresponding to a −10 log P score ≥19.3.
(§4) The MS-only level data from the LC-MS/MS analyses were extracted and aligned using Profinder V.B.10.01 software (Agilent Technologies). Retention times, neutral masses, and chemical formulas generated from identified acetyl peptides were used to perform batch-targeted feature extraction. Data were extracted with an ion count threshold of two or more ions, 5000 counts, and a score threshold of 70. The score was based on the quality of the mass accuracy, isotope abundances, and isotope spacing of compounds based on the chemical formula of the target peptides within a specified retention time window. Using the peptide isotope model, charge states 2-6 were allowed with H^+ and Na^+ charge carriers. The retention time window and mass window alignment tolerances were set to 0.4 min and 10 ppm, respectively. The extracted peptide peak areas were then used to determine a fold change value in the treated vs. control samples to help identify potential AcK sites that may be affected by aggrelyte-2. Due to a lack of statistical power, a three-fold change filter was used as a sufficient cutoff to identify potential AcK sites of interest. […]

[2] = target: T1, human lens cortical proteins (Homo sapiens, UniProt Q71U36); assay: as above; design: key to Fold Change (Aggrelyte-2 vs Control) [Total Sum]: *: were not detected in the control lens but were prominent in the Aggrelyte-2-treated lens; conditions: Tubulin alpha-1A chain K370
T1 construct: from tissue; host or cells: cortex of a human lens from a donor, treated ex vivo
Protocol: as §1, §2, §3, §4

[3] = target: T2, human lens cortical proteins (Homo sapiens, UniProt P32320); assay: as above; design: key to Fold Change (Aggrelyte-2 vs Control) [Total Sum]: *: were not detected in the control lens but were prominent in the Aggrelyte-2-treated lens; conditions: Cytidine deaminase K51
T2 construct: from tissue; host or cells: cortex of a human lens from a donor, treated ex vivo
Protocol: as §1, §2, §3, §4

[4] = target: T3, human lens cortical proteins (Homo sapiens, UniProt P02489); assay: as above; design: key to Fold Change (Aggrelyte-2 vs Control) [Total Sum]: *: were not detected in the control lens but were prominent in the Aggrelyte-2-treated lens; conditions: for Aggrelyte-2 treated Area: lens of donor
T3 construct: from tissue; host or cells: cortex of a human lens from a donor, treated ex vivo
T3 sequence (P02489 1-173): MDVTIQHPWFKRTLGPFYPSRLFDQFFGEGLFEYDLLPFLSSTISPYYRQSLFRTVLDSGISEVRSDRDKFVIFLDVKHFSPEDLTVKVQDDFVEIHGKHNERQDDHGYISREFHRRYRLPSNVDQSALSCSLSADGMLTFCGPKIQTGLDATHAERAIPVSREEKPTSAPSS
Protocol: as §1, §2, §3, §4

[5] = test system: mouse lenses; assay: Stiffness of ex vivo mouse lenses (Example 18); design: species or system mouse (C57BL/6J); conditions: 1 mM, 24 hours, ex vivo mouse lenses (3-6 months old); not significant
Protocol: In this example, the lenses were dissected from the eyes of mice (C57BL/6J, 3-6 months old, Jackson Laboratories, Stock No. 000664) by a posterior approach and incubated without (“Control”) or with Aggrelyte-2 or Aggrelyte-2A (1 mM) for 24 hours in serum-free and phenol-red-free MEM (297 mOsm) at 37° C. Lens stiffness was measured as in Example 10, except that the load was applied at 50 mg increments.

T1 sequence (Q71U36 whole entry): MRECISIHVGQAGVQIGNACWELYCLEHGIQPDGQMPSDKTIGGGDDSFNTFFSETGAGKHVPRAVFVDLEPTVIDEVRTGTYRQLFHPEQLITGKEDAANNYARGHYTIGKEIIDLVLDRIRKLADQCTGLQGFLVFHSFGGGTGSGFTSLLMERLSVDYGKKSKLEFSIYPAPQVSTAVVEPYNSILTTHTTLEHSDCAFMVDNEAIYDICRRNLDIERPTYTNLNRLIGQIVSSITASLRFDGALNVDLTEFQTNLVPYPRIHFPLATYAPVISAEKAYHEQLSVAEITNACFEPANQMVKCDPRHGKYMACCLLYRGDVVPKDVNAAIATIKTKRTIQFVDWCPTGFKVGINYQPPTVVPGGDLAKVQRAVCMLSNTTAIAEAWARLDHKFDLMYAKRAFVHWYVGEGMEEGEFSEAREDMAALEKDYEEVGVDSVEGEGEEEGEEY
T2 sequence (P32320 whole entry): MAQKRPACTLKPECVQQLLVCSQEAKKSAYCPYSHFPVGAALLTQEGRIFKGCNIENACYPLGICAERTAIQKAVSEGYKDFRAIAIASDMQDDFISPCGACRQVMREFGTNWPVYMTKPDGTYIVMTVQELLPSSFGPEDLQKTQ

With `COC(=O)[C@H](CSC(C)=O)NC(C)=O` [Aggrelyte-2, N,S-diacetyl-L-cysteine methyl ester] the “Aggrelyte-2 treated Area” value ([1]; Acetylated Bovine Serum Albumin Standard Spike at 200 ng in each sample (workup control), 17 peptides summed) was 3.68E+07, the “Fold Change (Aggrelyte-2 vs Control) [Total Sum]” value (“Fold Change” below) ([1]; Actin cytoplasmic 1 K61) was 3.48 and the “Aggrelyte-2 treated Area” value ([1]; Actin cytoplasmic 1 K61, lens of donor) was 7.63E+04. The “Fold Change” value ([1]; Actin cytoplasmic 1 K213) was 3.53, the “Aggrelyte-2 treated Area” value ([1]; Actin cytoplasmic 1 K213, lens of donor) was 1.03E+05 and the “Fold Change” value ([1]; AlphaB-crystallin K72) was 3.56. For the same compound, the “Aggrelyte-2 treated Area” value ([1]; AlphaB-crystallin K72, lens of donor) was 6.31E+05, the “Fold Change” value ([1]; AlphaB-crystallin K174) was 7.41 and the “Aggrelyte-2 treated Area” value ([1]; AlphaB-crystallin K174, lens of donor) was 5.84E+06. For the same compound, the “Fold Change” value ([1]; BetaB2-crystallin K42) was 25.80, the “Aggrelyte-2 treated Area” value ([1]; BetaB2-crystallin K42, lens of donor) was 6.98E+05 and the “Fold Change” value ([1]; Filensin K360) was 3.94. The “Aggrelyte-2 treated Area” value ([1]; Filensin K360, lens of donor) was 1.16E+05, the “Fold Change” value ([1]; Glyceraldehyde-3-phosphate dehydrogenase K263) was 3.18 and the “Aggrelyte-2 treated Area” value ([1]; Glyceraldehyde-3-phosphate dehydrogenase K263, lens of donor) was 1.04E+05. The “Fold Change” value ([1]; Peroxiredoxin-6 K56) was 3.26, the “Aggrelyte-2 treated Area” value ([1]; Peroxiredoxin-6 K56, lens of donor) was 5.83E+05 and the “Fold Change” value ([1]; Phakinin K400) was 14.48. The “Aggrelyte-2 treated Area” value ([1]; Phakinin K400, lens of donor) was 2.21E+05, the “Fold Change” value ([1]; Retinal dehydrogenase 1 K495) was 9.12 and the “Aggrelyte-2 treated Area” value ([1]; Retinal dehydrogenase 1 K495, lens of donor) was 9.11E+04. The “Fold Change” value [2] was “*”, the “Aggrelyte-2 treated Area” value ([2]; lens of donor) was 4.24E+04 and the “Fold Change” value [3] was 3.66. For the same compound, the “Aggrelyte-2 treated Area” value ([3]; lens of donor) was 7.26E+05, the “Fold Change” value ([4]; AlphaA-crystallin K70) was 3.13 and the “Aggrelyte-2 treated Area” value ([4]; AlphaA-crystallin K70) was 8.80E+06. The “Fold Change” value ([4]; AlphaA-crystallin K88) was “*”, the “Aggrelyte-2 treated Area” value ([4]; AlphaA-crystallin K88) was 1.11E+05 and the “reduction of lens stiffness” value [5] was “approximately 20%”.

From patent US12350250B2, “Aggrelytes for treating ocular conditions” (The Regents of the University of Colorado, a Body Corporate, priority 2022, dated 2025)
